Key:
Assay in all cases: relative viability (nuclei count vs DMSO), 5 days (fraction); higher = more cells survive
[1] = compound: CC1=C(C(=NN1)C)CC2=C(C3=C(S2)N(C(=O)N(C3=O)C)CC(C)C)C(=O)N4C[C@@H](CO4)O + NC(=O)Nc1cc(-c2cccc(F)c2)sc1C(=O)N[C@H]1CCCNC1 [AZD7762] (partner 0.2 µM)
Method in brief: (§1)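 Lung cancer cell lines in 1536-well plates got either a single drug or a fixed anchor-drug dose together with five library-drug doses (not always all listed) in √10 steps, by pin tool, on the day after seeding. Nuclei were counted after 5 days, and relative viability is the treated-to-vehicle ratio of nuclei counts. Values are medians of duplicate plates.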

[2] = compound: CC1=C(C(=NN1)C)CC2=C(C3=C(S2)N(C(=O)N(C3=O)C)CC(C)C)C(=O)N4C[C@@H](CO4)O + CS(=O)(=O)N1CCN(Cc2cc3nc(-c4cccc5[nH]ncc45)nc(N4CCOCC4)c3s2)CC1 [Pictilisib] (partner 1 µM)
Method in brief: as §1

IDH-C35 + Phenformin = compound: Cc1ccccc1C(C(=O)NC1CCCCC1)N(C(=O)Cn1ccnc1C)c1cccc(F)c1 [IDH-C35] + N=C(N)NC(=N)NCCc1ccccc1 [Phenformin] (partner 250 µM)
Method in brief: as §1

[3] = compound: CC1=C(C(=NN1)C)CC2=C(C3=C(S2)N(C(=O)N(C3=O)C)CC(C)C)C(=O)N4C[C@@H](CO4)O + CC(=O)Nc1cccc(-n2c(=O)n(C3CC3)c(=O)c3c(Nc4ccc(I)cc4F)n(C)c(=O)c(C)c32)c1 [Trametinib] (partner 0.02 µM)
Method in brief: as §1

| Cell Line | relative viability ([1]; first compound 0.0025 µM) | relative viability ([1]; first compound 0.007906 µM) | relative viability ([1]; first compound 0.025 µM) | relative viability ([1]; first compound 0.07906 µM) | relative viability ([1]; first compound 0.25 µM) | relative viability ([2]; first compound 0.0025 µM) | relative viability ([2]; first compound 0.007906 µM) | relative viability ([2]; first compound 0.025 µM) | relative viability ([2]; first compound 0.07906 µM) | relative viability ([2]; first compound 0.25 µM) | relative viability (IDH-C35 + Phenformin; first compound 0.08 µM) | relative viability (IDH-C35 + Phenformin; first compound 0.253 µM) | relative viability (IDH-C35 + Phenformin; first compound 0.8 µM) | relative viability (IDH-C35 + Phenformin; first compound 2.53 µM) | relative viability (IDH-C35 + Phenformin; first compound 8 µM) | relative viability ([3]; first compound 0.0025 µM) | relative viability ([3]; first compound 0.007906 µM) | relative viability ([3]; first compound 0.025 µM) | relative viability ([3]; first compound 0.07906 µM) | relative viability ([3]; first compound 0.25 µM) |
| --- | --- | --- | --- | --- | --- | --- | --- | --- | --- | --- | --- | --- | --- | --- | --- | --- | --- | --- | --- | --- |
| NCI-H1975 | 0.709 | 0.691 | 0.735 | 0.723 | 0.771 | 0.324 | 0.298 | 0.293 | 0.301 | 0.315 | 0.411 | 0.406 | 0.401 | 0.425 | 0.401 | 0.38 | 0.358 | 0.403 | 0.491 | 0.33 |
| CAL-12T | 0.632 | 0.578 | 0.647 | 0.6 | 0.566 | 0.502 | 0.57 | – | 0.588 | 0.518 | 0.546 | 0.618 | 0.556 | 0.589 | 0.498 | 0.402 | 0.464 | 0.372 | 0.379 | 0.405 |
| NCI-H1623 | – | – | – | – | – | – | – | – | – | – | 0.604 | 0.638 | 0.573 | 0.613 | 0.557 | – | – | – | – | – |
| HCC-44 | 1 | 0.984 | 0.98 | 1.06 | 1.07 | 0.615 | 0.689 | 0.616 | 0.6 | 0.616 | 0.227 | 0.293 | 0.254 | 0.166 | 0.182 | 1.11 | 1.08 | 1.1 | 1.05 | 1.05 |
| EKVX | 0.803 | 0.721 | 0.761 | 0.517 | 0.725 | 0.544 | 0.485 | 0.457 | 0.449 | 0.42 | 0.245 | 0.219 | 0.227 | 0.229 | 0.189 | 0.397 | 0.339 | 0.353 | 0.246 | 0.372 |
| NCI-H1651 | 0.414 | 0.478 | 0.391 | 0.337 | 0.416 | 0.579 | 0.634 | 0.651 | 0.558 | 0.52 | 0.338 | 0.292 | 0.362 | 0.344 | 0.296 | 0.865 | 0.861 | 0.849 | 0.798 | 0.819 |
| NCI-H1944 | 0.531 | 0.524 | 0.466 | 0.478 | 0.51 | 0.351 | 0.376 | 0.356 | 0.389 | 0.386 | 0.212 | 0.183 | 0.202 | 0.18 | 0.192 | 0.422 | 0.438 | 0.478 | 0.396 | 0.385 |
| NCI-H1703 | 0.113 | 0.144 | 0.112 | 0.113 | 0.136 | 0.223 | 0.224 | 0.264 | 0.256 | 0.242 | – | – | – | – | – | – | – | – | – | – |
| Calu-6 | – | – | – | – | – | 1.01 | 0.939 | 0.887 | 0.949 | 0.981 | – | – | – | – | – | – | – | – | – | – |
| EBC-1 | – | – | – | – | – | 0.396 | 0.333 | 0.447 | 0.493 | 0.444 | – | – | – | – | – | – | – | – | – | – |
| SW 1573 | – | – | – | – | – | 0.472 | 0.589 | 0.595 | 0.419 | 0.412 | 0.456 | 0.372 | 0.387 | 0.359 | 0.352 | 0.496 | 0.574 | 0.622 | 0.59 | 0.654 |
| A-427 | 0.73 | 0.691 | 0.752 | 0.847 | 0.677 | 0.733 | 0.685 | 0.679 | 0.843 | 0.826 | 0.359 | 0.3 | 0.338 | 0.314 | 0.312 | 0.748 | 0.754 | 0.809 | 0.754 | 0.763 |
| NCI-H2347 | 0.739 | 0.697 | 0.734 | 0.718 | 0.667 | 0.905 | 0.909 | 0.507 | 0.836 | 0.547 | 0.421 | 0.516 | 0.362 | 0.474 | 0.241 | 0.269 | 0.313 | 0.301 | 0.274 | 0.265 |
| NCI-H1355 | 0.688 | 0.842 | 0.713 | 0.65 | 0.816 | 0.45 | 0.562 | 0.528 | 0.405 | 0.5 | 0.52 | 0.438 | 0.424 | 0.466 | 0.395 | 0.461 | 0.423 | 0.472 | 0.402 | 0.442 |
| NCI-H358 | 0.571 | 0.623 | 0.431 | 0.643 | 0.594 | 0.41 | 0.348 | 0.359 | 0.375 | 0.375 | 0.366 | 0.33 | 0.337 | 0.388 | 0.328 | 0.146 | 0.125 | 0.146 | 0.125 | 0.129 |
| PC-3 [JPC-3] | 0.872 | 0.76 | 0.69 | 0.976 | 0.806 | 0.896 | 0.866 | 0.732 | 0.797 | 0.763 | 0.471 | 0.447 | 0.521 | 0.509 | 0.453 | 0.74 | 0.649 | 0.718 | 0.678 | 0.682 |
| NCI-H2228 | – | – | – | – | – | 0.546 | 0.356 | 0.439 | 0.352 | 0.443 | 0.255 | 0.374 | 0.436 | 0.417 | 0.405 | 0.788 | 0.584 | 0.578 | 0.662 | 0.577 |
| HOP-62 | 0.668 | 0.589 | 0.646 | 0.615 | 0.851 | 0.719 | 0.876 | 0.903 | 0.787 | 0.825 | 0.718 | 0.649 | 0.634 | 0.618 | 0.677 | 0.365 | 0.402 | 0.408 | 0.435 | 0.4 |
| HARA | 0.281 | 0.288 | 0.324 | 0.297 | 0.218 | 0.473 | 0.372 | 0.369 | 0.506 | 0.283 | 0.522 | 0.461 | 0.435 | – | 0.386 | 1.14 | 0.991 | 0.759 | 0.662 | 0.782 |

From the supplement of paper PMC10307832
